Source: patent publication US20260092071A1, “COMPOUNDS AND COMPOSITIONS AS SMARCA2/4 DEGRADERS AND USES THEREOF” (REGENTS OF THE UNIVERSITY OF MICHIGAN, priority 2022, published 2026)
Where two headings read alike, the source gives them in different places.

How the values were obtained:
SMARCA4 = SMARCA4 (Homo sapiens, UniProt P51532); experiment: HiBiT assay for protein degradation, Hela SMARCA4-HiBiT cells (A series); assay type: cell-based; design: fuse HiBiT to the carboxy terminus of SMARCA2 (Promega CS302365) or SMARCA4 (Promega CS3023225); host or cells: HeLa (CRISPR/Cas9 HiBiT knock-in); conditions: for DC50: read-out: SMARC A4 Hela HiBit DC50
Sequence of SMARCA4 (P51532 whole entry): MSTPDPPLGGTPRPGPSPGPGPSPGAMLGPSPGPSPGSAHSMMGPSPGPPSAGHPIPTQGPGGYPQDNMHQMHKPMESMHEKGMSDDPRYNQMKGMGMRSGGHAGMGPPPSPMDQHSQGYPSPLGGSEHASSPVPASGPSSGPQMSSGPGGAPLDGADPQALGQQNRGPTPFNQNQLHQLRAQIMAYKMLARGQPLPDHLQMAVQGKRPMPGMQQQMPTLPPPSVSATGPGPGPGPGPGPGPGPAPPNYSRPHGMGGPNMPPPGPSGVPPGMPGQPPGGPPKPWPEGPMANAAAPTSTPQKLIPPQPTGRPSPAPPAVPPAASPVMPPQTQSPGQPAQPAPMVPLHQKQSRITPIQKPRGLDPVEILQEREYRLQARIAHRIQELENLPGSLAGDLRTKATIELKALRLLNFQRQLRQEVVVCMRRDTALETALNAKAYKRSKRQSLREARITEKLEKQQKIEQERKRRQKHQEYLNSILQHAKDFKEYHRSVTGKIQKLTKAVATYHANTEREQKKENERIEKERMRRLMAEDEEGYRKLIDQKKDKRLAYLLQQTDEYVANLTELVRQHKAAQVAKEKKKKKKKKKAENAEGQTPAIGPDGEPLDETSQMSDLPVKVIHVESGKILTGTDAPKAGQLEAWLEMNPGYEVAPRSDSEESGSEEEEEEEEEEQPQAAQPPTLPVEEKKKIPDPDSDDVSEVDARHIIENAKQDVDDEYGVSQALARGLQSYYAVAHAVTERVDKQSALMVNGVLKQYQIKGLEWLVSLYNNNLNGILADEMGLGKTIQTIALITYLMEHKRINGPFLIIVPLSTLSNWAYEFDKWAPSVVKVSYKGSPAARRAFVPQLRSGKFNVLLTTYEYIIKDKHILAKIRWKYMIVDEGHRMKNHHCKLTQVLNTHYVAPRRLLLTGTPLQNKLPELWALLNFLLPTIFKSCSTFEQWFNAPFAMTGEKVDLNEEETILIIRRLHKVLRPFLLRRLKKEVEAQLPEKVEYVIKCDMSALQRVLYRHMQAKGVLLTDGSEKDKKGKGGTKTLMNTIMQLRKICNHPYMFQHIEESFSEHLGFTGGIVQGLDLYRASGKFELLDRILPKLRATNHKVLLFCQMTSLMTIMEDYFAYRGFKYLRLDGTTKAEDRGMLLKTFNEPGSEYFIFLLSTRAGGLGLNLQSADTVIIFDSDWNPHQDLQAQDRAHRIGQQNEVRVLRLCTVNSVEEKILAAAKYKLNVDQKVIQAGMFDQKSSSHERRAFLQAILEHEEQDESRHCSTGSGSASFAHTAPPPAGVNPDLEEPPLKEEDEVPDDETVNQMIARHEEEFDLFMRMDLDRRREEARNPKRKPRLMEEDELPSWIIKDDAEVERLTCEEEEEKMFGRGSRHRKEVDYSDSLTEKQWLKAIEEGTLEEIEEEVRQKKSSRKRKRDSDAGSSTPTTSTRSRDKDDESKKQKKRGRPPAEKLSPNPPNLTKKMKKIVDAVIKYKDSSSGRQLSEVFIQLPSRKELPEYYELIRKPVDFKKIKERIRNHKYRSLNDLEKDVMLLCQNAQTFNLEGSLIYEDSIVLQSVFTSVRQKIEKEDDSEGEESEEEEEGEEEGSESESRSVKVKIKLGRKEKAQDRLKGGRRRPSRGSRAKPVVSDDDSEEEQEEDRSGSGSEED
Protocol: Hela cells were genetically modified via CRISPR/Cas9 to fuse HiBiT to the carboxy terminus of SMARCA2 (Promega CS302365) or SMARCA4 (Promega CS3023225). Cells were cultured in DMEM containing 10% FBS and 1% (Vol:Vol) penicillin-streptomycin. […] At the end of experiment, levels of SMARCA2 or SMARCA4 expression were assessed with Nano-Glo® HiBiT Lytic Detection Assay (Promega N3050). IC50 was obtained using the GraphPad Prism data analysis software.

SMARCA2 = SMARCA2 (Homo sapiens, UniProt P51531); experiment: HiBiT assay for protein degradation, Hela SMARCA2-HiBiT cells (A series); assay type: cell-based; design: Hela cells were genetically modified via CRISPR/Cas9 to fuse HiBiT to the carboxy terminus of SMARCA2; host or cells: HeLa (CRISPR/Cas9 HiBiT knock-in); conditions: for DC50: read-out: SMARC A2 Hela HiBit DC50; for Dmax: read-out: SMARC A2 Hela HiBit Dmax (%);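 for SMARC A2 Hela HiBit Dmax (%): 24 h compound treatment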
Sequence of SMARCA2 (P51531 whole entry): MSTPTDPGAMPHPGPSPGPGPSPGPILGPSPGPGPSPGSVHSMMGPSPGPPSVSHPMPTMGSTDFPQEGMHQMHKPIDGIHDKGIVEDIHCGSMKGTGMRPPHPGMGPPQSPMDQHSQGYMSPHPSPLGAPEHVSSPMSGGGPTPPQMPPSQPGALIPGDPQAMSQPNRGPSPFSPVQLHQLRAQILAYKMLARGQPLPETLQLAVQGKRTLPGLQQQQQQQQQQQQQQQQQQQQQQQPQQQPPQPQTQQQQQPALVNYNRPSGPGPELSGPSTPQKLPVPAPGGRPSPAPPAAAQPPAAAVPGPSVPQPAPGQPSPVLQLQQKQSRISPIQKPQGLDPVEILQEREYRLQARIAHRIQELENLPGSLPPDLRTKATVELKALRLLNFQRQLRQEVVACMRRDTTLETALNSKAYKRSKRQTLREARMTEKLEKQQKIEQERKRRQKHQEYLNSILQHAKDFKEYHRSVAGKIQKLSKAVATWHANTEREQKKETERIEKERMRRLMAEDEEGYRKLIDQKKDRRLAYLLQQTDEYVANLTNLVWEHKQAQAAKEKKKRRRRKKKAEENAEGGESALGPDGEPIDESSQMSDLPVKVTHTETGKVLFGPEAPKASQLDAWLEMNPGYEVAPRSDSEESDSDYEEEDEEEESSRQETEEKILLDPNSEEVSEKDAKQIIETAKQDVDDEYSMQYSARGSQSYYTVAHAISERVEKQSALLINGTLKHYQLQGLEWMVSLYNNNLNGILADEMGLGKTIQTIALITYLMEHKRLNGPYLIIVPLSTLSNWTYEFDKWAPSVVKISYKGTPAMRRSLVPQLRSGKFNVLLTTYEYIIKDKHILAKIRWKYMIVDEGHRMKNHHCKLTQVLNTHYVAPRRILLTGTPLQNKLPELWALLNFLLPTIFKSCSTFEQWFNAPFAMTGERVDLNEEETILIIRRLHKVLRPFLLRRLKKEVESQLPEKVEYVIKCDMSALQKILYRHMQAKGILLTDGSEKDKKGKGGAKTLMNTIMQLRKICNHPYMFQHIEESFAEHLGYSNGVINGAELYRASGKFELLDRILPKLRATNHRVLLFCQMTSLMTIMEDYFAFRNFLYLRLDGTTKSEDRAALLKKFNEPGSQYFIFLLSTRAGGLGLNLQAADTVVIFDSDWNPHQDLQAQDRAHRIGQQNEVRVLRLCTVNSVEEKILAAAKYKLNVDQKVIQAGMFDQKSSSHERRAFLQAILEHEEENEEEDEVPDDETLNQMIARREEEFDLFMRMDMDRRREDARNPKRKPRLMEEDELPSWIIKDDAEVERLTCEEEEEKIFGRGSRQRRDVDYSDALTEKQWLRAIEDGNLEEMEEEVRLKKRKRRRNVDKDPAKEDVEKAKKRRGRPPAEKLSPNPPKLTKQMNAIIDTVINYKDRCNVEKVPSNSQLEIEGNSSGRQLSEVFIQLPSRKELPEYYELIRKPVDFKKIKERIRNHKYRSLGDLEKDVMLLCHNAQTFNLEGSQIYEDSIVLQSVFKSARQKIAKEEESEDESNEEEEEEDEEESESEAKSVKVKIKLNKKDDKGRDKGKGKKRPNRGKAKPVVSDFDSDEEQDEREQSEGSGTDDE
Outline: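 SMARCA2 degradation was measured in HeLa cells whose endogenous SMARCA2 carries a carboxy-terminal HiBiT tag introduced by CRISPR/Cas9 (Promega CS302365). Cells were maintained in DMEM with FBS and penicillin-streptomycin. SMARCA2 levels were read at the end of the experiment by Nano-Glo® HiBiT lytic luminescence (Promega N3050) and analyzed in GraphPad Prism.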

[1] = Hela SMARCA4-HiBiT cells, 24 hours treatment
[2] = Hela SMARCA4-HiBiT cells, 24 hours treatment, read-out: SMARC A4 Hela HiBit Dmax
[3] = Hela SMARCA2-HiBiT cells, 24 hours treatment
[4] = Hela SMARCA4-HiBiT cells, 24 hours treatment, read-out: SMARC A4 Hela HiBit Dmax(%)

DC50 (SMARCA4; [1]) | Dmax (SMARCA4; [2]) | DC50 (SMARCA2; [3]) | Dmax (SMARCA2; [3]) | Dmax (SMARCA4; [4]) | SMARC A4 Hela HiBit Dmax(%) (SMARCA4; [1]) | DC50 (SMARCA4) | SMARC A2 Hela HiBit Dmax (%) (SMARCA2; [3]) | DC50 (SMARCA2) | SMARC A4 Hela HiBit DC50(nM) (SMARCA4; [1]) | Compound
< 10 nM | > 90% | < 10 nM | > 90% | – | – | – | – | – | – | Cc1ncsc1-c1ccc([C@@H](NC(=O)[C@@H]2C[C@@H](O)CN2C(=O)[C@@H](n2cc(C3CC3)nn2)C(C)(C)C)C(=O)N2CCC(CN3CCC(c4ccc5c(c4)-n4c(nc(=O)c6c(Br)cccc64)C54CCCCC4)CC3)CC2)cc1 [Compound A136, (2S,4R)—N—((R)-2-(4-((4-(4′-bromo-5′-oxo-5′H-spiro[cyclohexane-1,7′-indolo[1,2-a]quinazolin]-10′-yl)piperidin-1-yl)methyl)piperidin-1-yl)-1-(4-(4-methylthiazol-5-yl)phenyl)-2-oxoethyl)-1-((S)-2-(4-cyclopropyl-1H-1,2,3-triazol-1-yl)-3,3-dimethylbutanoyl)-4-hydroxypyrrolidine-2-carboxamide]
100 to 1000 nM | 50 to 69% | < 10 nM | > 90% | – | – | – | – | – | – | Cc1nc(C)c(-c2ccc([C@H](CN3CCOCC3)NC(=O)[C@@H]3C[C@@H](O)CN3C(=O)[C@@H](n3cc([C@H]4CC[C@H](CN5CCC(c6ccc7c(c6)-n6c(nc(=O)c8c(Cl)cccc86)C76CCCCC6)CC5)CC4)nn3)C(C)(C)C)cc2)s1 [Compound A161, (2S,4R)-1-((S)-2-(4-((1r,4S)-4-((4-(4′-chloro-5′-oxo-5′H-spiro[cyclohexane-1,7′-indolo[1,2-a]quinazolin]-10′-yl)piperidin-1-yl)methyl)cyclohexyl)-1H-1,2,3-triazol-1-yl)-3,3-dimethylbutanoyl)-N—((R)-1-(4-(2,4-dimethylthiazol-5-yl)phenyl)-2-morpholinoethyl)-4-hydroxypyrrolidine-2-carboxamide]
< 100 nM | – | < 100 nM | > 90% | > 90% | – | – | – | – | – | Cc1ncsc1-c1ccc([C@H](CCCCCN2CCC(c3ccc4c(n3)-n3c(nc(=O)c5c(Br)cccc53)C43CCCCC3)CC2)NC(=O)[C@H]2C[C@H](O)CN2C(=O)[C@@H](n2cc(C3CC3)nn2)C(C)(C)C)cc1 [Compound A37, (2R,4S)—N—((S)-6-(4-(4′-bromo-5′-oxo-5′H-spiro[cyclohexane-1,7′-pyrido[3′,2′: 4,5]pyrrolo[1,2-a]quinazolin]-10′-yl)piperidin-1-yl)-1-(4-(4-methylthiazol-5-yl)phenyl)hexyl)-1-((S)-2-(4-cyclopropyl-1H-1,2,3-triazol-1-yl)-3,3-dimethylbutanoyl)-4-hydroxypyrrolidine-2-carboxamide]
< 10 nM | > 90% | < 10 nM | > 90% | – | – | – | – | – | – | Cc1ncsc1-c1ccc([C@H](CC(=O)N2CCC(CN3CCC(c4ccc5c(c4)-n4c(nc(=O)c6c(Br)cccc64)C54CCCCC4)CC3)CC2)NC(=O)[C@@H]2C[C@@H](O)CN2C(=O)[C@@H](n2cc(C3CC3)nn2)C(C)(C)C)cc1 [Compound A141, (2S,4R)—N—((S)-3-(4-((4-(4′-bromo-5′-oxo-5′H-spiro[cyclohexane-1,7′-indolo[1,2-a]quinazolin]-10′-yl)piperidin-1-yl)methyl)piperidin-1-yl)-1-(4-(4-methylthiazol-5-yl)phenyl)-3-oxopropyl)-1-((S)-2-(4-cyclopropyl-1H-1,2,3-triazol-1-yl)-3,3-dimethylbutanoyl)-4-hydroxypyrrolidine-2-carboxamide]
– | – | – | – | – | C (C (50-69% degradation)) | 100 to 500 nM | B (B (70-90% degradation)) | < 100 nM | – | Cc1ncsc1-c1ccc([C@H](CN2CCOCC2)NC(=O)[C@@H]2C[C@@H](O)CN2C(=O)[C@@H](NC(=O)C23CCC(CN4CCC(c5ccc6c(c5)C5(CCCCC5)c5nc(=O)c7c(Br)cccc7n5-6)CC4)(CC2)CC3)C(C)(C)C)cc1 [Compound A28, (2S,4R)-1-((S)-2-(4-((4-(4′-bromo-5′-oxo-5′H-spiro[cyclohexane-1,7′-indolo[1,2-a]quinazolin]-9′-yl)piperidin-1-yl)methyl)bicyclo[2.2.2]octane-1-carboxamido)-3,3-dimethylbutanoyl)-4-hydroxy-N—((R)-1-(4-(4-methylthiazol-5-yl)phenyl)-2-morpholinoethyl)pyrrolidine-2-carboxamide]
> 1000 nM | 50 to 69% | < 10 nM | > 90% | – | – | – | – | – | – | Cc1ncsc1-c1ccc([C@H](CN2CCOCC2)NC(=O)[C@@H]2C[C@@H](O)CN2C(=O)[C@H](C2CCOCC2)n2cc([C@H]3CC[C@H](CN4CCC(c5ccc6c(c5)-n5c(nc(=O)c7c(Cl)cccc75)C6(C)C)CC4)CC3)nn2)cc1 [Compound A102, (2S,4R)-1-((S)-2-(4-((1r,4S)-4-((4-(4-chloro-7,7-dimethyl-5-oxo-5,7-dihydroindolo[1,2-a]quinazolin-10-yl)piperidin-1-yl)methyl)cyclohexyl)-1H-1,2,3-triazol-1-yl)-2-(tetrahydro-2H-pyran-4-yl)acetyl)-4-hydroxy-N-((R)-1-(4-(4-methylthiazol-5-yl)phenyl)-2-morpholinoethyl)pyrrolidine-2-carboxamide]
> 1000 nM | – | < 100 nM | > 90% | 50 to 69% | – | – | – | – | – | Cc1ncsc1-c1ccc([C@H](CN2CCC(O)CC2)NC(=O)[C@@H]2C[C@@H](O)CN2C(=O)[C@@H](n2cc([C@H]3CC[C@H](CN4CCC(c5ccc6c(c5)-n5c(nc(=O)c7c(Cl)cccc75)C65CCCCC5)CC4)CC3)nn2)C(C)(C)C)cc1 [Compound A73, (2S,4R)-1-((S)-2-(4-((1r,4S)-4-((4-(4′-chloro-5′-oxo-5′H-spiro[cyclohexane-1,7′-indolo[1,2-a]quinazolin]-10′-yl)piperidin-1-yl)methyl)cyclohexyl)-1H-1,2,3-triazol-1-yl)-3,3-dimethylbutanoyl)-4-hydroxy-N—((R)-2-(4-hydroxypiperidin-1-yl)-1-(4-(4-methylthiazol-5-yl)phenyl)ethyl)pyrrolidine-2-carboxamide]
– | 70 to 90% | < 10 nM | > 90% | – | – | – | – | – | No fit | Cc1ncsc1-c1ccc([C@H](C)NC(=O)[C@@H]2C[C@@H](O)CN2C(=O)[C@H](C2CCOCC2)n2cc([C@H]3CC[C@H](CN4CCC(c5ccc6c(c5)-n5c(nc(=O)c7c(Br)cccc75)C65CCCCC5)CC4)CC3)nn2)cc1 [Compound A121, (2S,4R)-1-((S)-2-(4-((1r,4S)-4-((4-(4′-bromo-5′-oxo-5′H-spiro[cyclohexane-1,7′-indolo[1,2-a]quinazolin]-10′-yl)piperidin-1-yl)methyl)cyclohexyl)-1H-1,2,3-triazol-1-yl)-2-(tetrahydro-2H-pyran-4-yl)acetyl)-4-hydroxy-N—((S)-1-(4-(4-methylthiazol-5-yl)phenyl)ethyl)pyrrolidine-2-carboxamide]
> 1000 nM | < 50% | < 10 nM | 70 to 90% | – | – | – | – | – | – | Cc1ncsc1-c1ccc([C@H](C)NC(=O)[C@@H]2C[C@@H](O)CN2C(=O)[C@H](C2CCN(C(=O)[C@H]3CC[C@H](CN4CCC(c5ccc6c(c5)-n5c(nc(=O)c7c(Cl)cccc75)C65CCCCC5)CC4)CC3)CC2)n2cc(C3CC3)nn2)cc1 [Compound A108, (2S,4R)-1-((S)-2-(1-((1r,4S)-4-((4-(4′-chloro-5′-oxo-5′H-spiro[cyclohexane-1,7′-indolo[1,2-a]quinazolin]-10′-yl)piperidin-1-yl)methyl)cyclohexane-1-carbonyl)piperidin-4-yl)-2-(4-cyclopropyl-1H-1,2,3-triazol-1-yl)acetyl)-4-hydroxy-N—((S)-1-(4-(4-methylthiazol-5-yl)phenyl)ethyl)pyrrolidine-2-carboxamide]
> 1000 nM | < 50% | 100 to 1000 nM | 70 to 90% | – | – | – | – | – | – | O=C(O)c1ncsc1-c1ccc([C@H](CN2CCOCC2)NC(=O)[C@@H]2C[C@@H](O)CN2C(=O)[C@H](C2CCOCC2)n2cc([C@H]3CC[C@H](CN4CCC(c5ccc6c(c5)-n5c(nc(=O)c7c(Cl)cccc75)C65CCCCC5)CC4)CC3)nn2)cc1 [Compound A134, 5-(4-((R)-1-((2S,4R)-1-((S)-2-(4-((1r,4S)-4-((4-(4′-chloro-5′-oxo-5′H-spiro[cyclohexane-1,7′-indolo[1,2-a]quinazolin]-10′-yl)piperidin-1-yl)methyl)cyclohexyl)-1H-1,2,3-triazol-1-yl)-2-(tetrahydro-2H-pyran-4-yl)acetyl)-4-hydroxypyrrolidine-2-carboxamido)-2-morpholinoethyl)phenyl)thiazole-4-carboxylic acid]
